Results as given in ChEMBL document CHEMBL1649234, “Antimicrobial activities of piperacillin-tazobactam against Haemophilus influenzae isolates, including beta-lactamase-negative ampicillin-resistant and beta-lactamase-positive amoxicillin-clavulanate-resistant isolates, and mutations in their quinolone resistance-determining regions” (2009).
≈ marks a conversion by molar mass, not a printed value.

Assays:
Format in all cases: functional
Haemophilus influenzae [1] = experiment: Antimicrobial activity against beta-lactamase negative ampicillin-resistant -Haemophilus influenzae by broth microdilution method
Haemophilus influenzae [2] = experiment: Antimicrobial activity against beta-lactamase negative ampicillin-resistant Haemophilus influenzae assessed as susceptible isolates by broth microdilution method
Haemophilus influenzae [3] = experiment: Antimicrobial activity against beta-lactamase positive (amoxicillin)clavulanate-resistant Haemophilus influenzae assessed as susceptible isolates by broth microdilution method
Haemophilus influenzae [4] = experiment: Antimicrobial activity against beta-lactamase positive (amoxicillin)clavulanate-resistant Haemophilus influenzae by broth microdilution method
Haemophilus influenzae [5] = experiment: Antimicrobial activity against beta-lactamase positive (amoxicillin)clavulanate-resistant Haemophilus influenzae by broth microdilution method in presence of beta-lactamase inhibitor Sulbactam
Haemophilus influenzae [6] = experiment: Antimicrobial activity against beta-lactamase negative ampicillin-resistant Haemophilus influenzae assessed as susceptible isolates by broth microdilution method in presence of beta-lactamase inhibitor Sulbactam
Haemophilus influenzae [7] = experiment: Antimicrobial activity against beta-lactamase negative ampicillin-susceptible Haemophilus influenzae harboring […] mutant gene by broth microdilution method
Haemophilus influenzae [8] = experiment: Antimicrobial activity against beta-lactamase-positive ampicillin-resistant Haemophilus influenzae harboring fst1 mutant gene assessed as susceptible isolates by broth microdilution method
Haemophilus influenzae [9] = experiment: Antimicrobial activity against beta-lactamase negative ampicillin-susceptible Haemophilus influenzae harboring […] mutant gene assessed as susceptible isolates by broth microdilution method in presence of beta-lactamase inhibitor Sulbactam
Haemophilus influenzae [10] = experiment: Antimicrobial activity against beta-lactamase-positive ampicillin-resistant Haemophilus influenzae harboring fst1 mutant gene by broth microdilution method
Haemophilus influenzae [11] = experiment: Antimicrobial activity against beta-lactamase negative ampicillin-susceptible Haemophilus influenzae harboring […] mutant gene assessed as susceptible isolates by broth microdilution method
Haemophilus influenzae [12] = experiment: Antimicrobial activity against beta-lactamase-positive ampicillin-resistant Haemophilus influenzae harboring fst1 mutant gene by broth microdilution method in presence of beta-lactamase inhibitor Sulbactam
Haemophilus influenzae [13] = experiment: Antimicrobial activity against beta-lactamase-positive ampicillin-resistant Haemophilus influenzae harboring […] mutant gene assessed as susceptible isolates by broth microdilution method in presence of beta-lactamase inhibitor Sulbactam
Haemophilus influenzae [14] = experiment: Antimicrobial activity against beta-lactamase positive (amoxicillin)clavulanate-resistant Haemophilus influenzae assessed as susceptible isolates by broth microdilution method in presence of beta-lactamase inhibitor Sulbactam
Haemophilus influenzae [15] = experiment: Antimicrobial activity against beta-lactamase negative ampicillin-susceptible Haemophilus influenzae harboring […] mutant gene by broth microdilution method in presence of beta-lactamase inhibitor Sulbactam
Haemophilus influenzae [16] = experiment: Antimicrobial activity against beta-lactamase negative ampicillin-resistant Haemophilus influenzae by broth microdilution method in presence of beta-lactamase inhibitor Sulbactam

Question: What does the source list for `C[C@@H](O)[C@H]1C(=O)N2C(C(=O)O)=C(SCCNC=N)C[C@H]12` [IMIPENEM ANHYDROUS]?
Answer: MIC50 (Haemophilus influenzae [1]): 1 mg/L (≈ 3.34 µM); MIC90 (Haemophilus influenzae [1]): 4 mg/L (≈ 13.4 µM); Activity (Haemophilus influenzae [2]): 96%; Activity (Haemophilus influenzae [3]): 98%; MIC50 (Haemophilus influenzae [4]): 2 mg/L; MIC90 (Haemophilus influenzae [4]): 2 mg/L

Question: How did the MIC50 (Haemophilus influenzae [1]) turn out when `C[C@@H](O)[C@H]1C(=O)N2C(C(=O)O)=C(S[C@@H]3CN[C@H](C(=O)N(C)C)C3)[C@H](C)[C@H]12` [MEROPENEM] was run?
Answer: Its MIC50 is 0.25 mg/L (≈ 0.652 µM).

Question: And the MIC90 (Haemophilus influenzae [1])?
Answer: Its MIC90 is 0.5 mg/L (≈ 1.3 µM).

Question: What about the Activity (Haemophilus influenzae [2]) of the same compound?
Answer: Its Activity is 99%.

Question: And the Activity (Haemophilus influenzae [3])?
Answer: The Activity was 100%.

Question: And the MIC50 (Haemophilus influenzae [4])?
Answer: Its MIC50 is 0.25 mg/L.

Question: What about the MIC90 (Haemophilus influenzae [4]) of the same compound?
Answer: The MIC90 was 0.5 mg/L.

Question: With `CC1(C)S[C@@H]2[C@H](NC(=O)[C@H](N)c3ccccc3)C(=O)N2[C@H]1C(=O)O` [AMPICILLIN] as the compound, how does the MIC (Haemophilus influenzae [5]) read?
Answer: The MIC was 8 mg/L.

Question: And the MIC50 (Haemophilus influenzae [5])?
Answer: Its MIC50 is 8 mg/L.

Question: And the MIC90 (Haemophilus influenzae [5])?
Answer: Its MIC90 is 16 mg/L.

Question: And the Activity (Haemophilus influenzae [6])?
Answer: Its Activity is 22%.

Question: And the MIC50 (Haemophilus influenzae [7])?
Answer: Its MIC50 is 0.25 mg/L (≈ 0.715 µM).

Question: And the MIC90 (Haemophilus influenzae [7])?
Answer: The MIC90 was 0.5 mg/L (≈ 1.43 µM).

Question: And the Activity (Haemophilus influenzae [8])?
Answer: Its Activity is 0%.

Question: And the Activity (Haemophilus influenzae [9])?
Answer: The Activity was 100%.

Question: And the MIC50 (Haemophilus influenzae [10])?
Answer: The MIC50 was ≥ 8 mg/L.

Question: What about the MIC90 (Haemophilus influenzae [10]) of the same compound?
Answer: Its MIC90 is ≥ 8 mg/L.

Question: And the Activity (Haemophilus influenzae [11])?
Answer: Its Activity is 100%.

Question: What about the MIC (Haemophilus influenzae [12]) of the same compound?
Answer: The MIC was 0.5 mg/L.

Question: And the MIC50 (Haemophilus influenzae [12])?
Answer: The MIC50 was 0.25 mg/L.

Question: And the MIC90 (Haemophilus influenzae [12])?
Answer: Its MIC90 is 0.5 mg/L.

Question: And the MIC50 (Haemophilus influenzae [1])?
Answer: Its MIC50 is 4 mg/L (≈ 11.4 µM).

Question: What about the MIC90 (Haemophilus influenzae [1]) of the same compound?
Answer: The MIC90 was ≥ 8 mg/L.

Question: What about the Activity (Haemophilus influenzae [2]) of the same compound?
Answer: Its Activity is 0%.

Question: What about the Activity (Haemophilus influenzae [3]) of the same compound?
Answer: Its Activity is 0%.

Question: What about the Activity (Haemophilus influenzae [13]) of the same compound?
Answer: Its Activity is 75%.

Question: What about the MIC (Haemophilus influenzae [4]) of the same compound?
Answer: The MIC was ≥ 8 mg/L.

Question: And the MIC50 (Haemophilus influenzae [4])?
Answer: Its MIC50 is ≥ 8 mg/L.

Question: What about the MIC90 (Haemophilus influenzae [4]) of the same compound?
Answer: Its MIC90 is ≥ 8 mg/L.

Question: And the Activity (Haemophilus influenzae [14])?
Answer: Its Activity is 0%.

Question: What about the MIC50 (Haemophilus influenzae [15]) of the same compound?
Answer: Its MIC50 is 0.5 mg/L.

Question: What about the MIC90 (Haemophilus influenzae [15]) of the same compound?
Answer: The MIC90 was 0.5 mg/L.

Question: And the MIC50 (Haemophilus influenzae [16])?
Answer: Its MIC50 is 4 mg/L.

Question: What about the MIC90 (Haemophilus influenzae [16]) of the same compound?
Answer: The MIC90 was 8 mg/L.
